{
  "source": "patent US20010009931A1",
  "about": "“Protective varnish for dentin” (priority 1997, published 2001)",
  "key": {"[1]": {"assay": "Leaching test of cured plaques in artificial saliva (Ringer solution), UV/Vis spectroscopy", "format": "physicochemical", "method": "These plaques were light-cured and stored in artificial saliva (Ringer solution) for 20 days at 37° C. By UV/Vis spectroscopy, no triclosan could be found in the artificial saliva.\nAgain, plaques were made from a mixture of the varnish components except for the solvent ethanol. These plaques were light-cured and stored in artificial saliva (Ringer solution) for 14 days at 37° C. By UV/Vis spectroscopy, some triclosan could be found in the artificial saliva."}, "[2]": {"system": "bacteria", "conditions": "long-term experiments; cited from earlier work"}},
  "data": [
    {"smiles": "Oc1cc(Cl)ccc1Oc1ccc(Cl)cc1Cl", "note": "[triclosan, 2,4,4′-trichloro-2′-hydroxydiphenyl ether]", "values": [
      {"measurement": "triclosan embedded in the plaque leached out", "setting": "[1]; plaque with 6.25 wt % triclosan based on resin mixture, 20 days at 37° C.", "value": "less than 0.1 wt %"},
      {"measurement": "leaching of the overall triclosan content of the plaque", "setting": "[1]; plaque with 40 wt % triclosan, 14 days at 37° C.", "value": 0.2, "unit": "wt %"},
      {"measurement": "development of bacterial resistance", "setting": "[2]", "value": "no development of bacterial resistance"}
    ]}
  ]
}
